Holding throughout (format): biochemical
One test has as its target T1, human GST-CLK1 (129-end) (Homo sapiens, UniProt P49759).
T1 construct: purified human GST-CLK1 (129-end, Signalchem) enzyme; GST; purchased Signalchem
The experiment in a line: GST-CLK1 enzyme inhibition, ADP-Glo kinase assay. The note with it: ATP 10 uM. As for the experimental part:
(§1) In order to evaluate the inhibitory activity of the compounds according to the present invention on LRRK2, LRRK2 (G2019S), DYRK1, CLK1 and TTK kinases, the following experiment was performed.
(§2) Example compounds were reacted with the purified human GST-CLK1 (129-end, Signalchem) enzyme to evaluate the enzyme inhibitory ability as follows. As the reaction buffer, the composition of 40 mM Tris-HCl pH 7.4, 20 mM MgCl2, 0.5 mg/mL BSA, and 50 uM DTT was used, and the reaction of all test materials was performed on the reaction buffer. During the test, the human GST-CLK1 (129-end, 3 ng) enzyme, the purified ATP (10 uM), and a specific substrate solution were reacted at 25° C. for 1 hour, and then the enzyme activity was identified using the in vitro ADP-Glo™ kinase assay (promega). Luminescence was measured by reacting the enzyme activity reaction solution, an ADP-Glo reaction solution and the enzyme potency detection solution in a ratio of 2:2:1. The degree of inhibition of enzyme activity according to the treatment concentrations of the respective compounds was calculated based on the fluorescence of the enzyme activity of a solvent control group that was not treated with the compound, where the concentration of each compound to inhibit enzyme activity inhibition by 50% was determined as an IC50 (nM) value. The IC50 of each compound was determined in triplicate data sets and obtained using Prism (version 7.01, GraphPad) software.
(§3) In the table below, the following designations were used for the evaluation of enzyme inhibitory ability.

Test [1] concerns the target T2, human GST-DYRK1A (full length) (Homo sapiens, UniProt Q13627).
T2 construct: purified human GST-DYRK1A (full length, Thermo scientifics) enzyme; GST; purchased Thermo scientifics
The test is described as follows: GST-DYRK1A enzyme inhibition, ADP-Glo kinase assay. The note with it: read-out: DYRK1 IC50. As for the experimental part: as §1
as §2, with “GST-DYRK1A (full length, Thermo scientifics)” for “GST-CLK1 (129-end, Signalchem)”, “GST-DYRK1A (full length, 10” for “GST-CLK1 (129-end, 3”
as §3
(ADP-Glo first removes unused ATP, then detects ADP through luciferase.)

Another test has as its target LRRK2 (G2019S) (Homo sapiens, UniProt Q5S007, G2019S). The experiment in a line: LRRK2 G2019S enzyme inhibition, ADP-Glo kinase assay. Details: purchased SignalChem L10-12GG. The protocol:
as §1
Example compounds were reacted with the purified human LRRK2 G2019S (L10-12GG, SignalChem) enzyme to evaluate the enzyme inhibitory ability as follows. The reaction buffer was used as the composition of 40 mM Tris-HCl pH7.4, 20 mM MgCl2, 0.5 mg/ml BSA and 50 μM DTT, and the reaction of all test materials was performed on the reaction buffer. The compound was diluted with 10 mM DMSO stock in 12 steps by a serial dilution method, and the enzyme activity was measured at the final compound concentrations of 50, 10, 2, 0.4, 0.08, 0.016, 0.0032, 0.00064, 0.000128, 0.0000256, 0.00000512 and 0.000001024 μM. In the test, the human LRRK2 G2019S (16 ng) enzyme was reacted with the purified ATP (25 μM) and an enzyme substrate (0.2 μg) at 25° C. for 2 hours, and then the enzyme activity was identified using the in vitro ADP-Glo™ kinase assay (promega). The enzyme activity reaction liquid, an ADP-Glo reaction liquid and an enzyme potency detection solution were reacted in a ratio of 2:2:1, and the degree of inhibition of enzyme activity was measured by Luminescence. The degree of inhibition of enzyme activity according to the treatment concentrations of the respective compounds was calculated based on the fluorescence of the enzyme activity of a solvent control group that was not treated with the compound, where the concentration of each compound to inhibit enzyme activity inhibition by 50% was determined as an IC50 (nM) value and obtained using Prism (Version 5.01, GraphPad) software.
as §3

Each structure is given as a SMILES string.

T1 sequence (P49759 129-484 limits assumed): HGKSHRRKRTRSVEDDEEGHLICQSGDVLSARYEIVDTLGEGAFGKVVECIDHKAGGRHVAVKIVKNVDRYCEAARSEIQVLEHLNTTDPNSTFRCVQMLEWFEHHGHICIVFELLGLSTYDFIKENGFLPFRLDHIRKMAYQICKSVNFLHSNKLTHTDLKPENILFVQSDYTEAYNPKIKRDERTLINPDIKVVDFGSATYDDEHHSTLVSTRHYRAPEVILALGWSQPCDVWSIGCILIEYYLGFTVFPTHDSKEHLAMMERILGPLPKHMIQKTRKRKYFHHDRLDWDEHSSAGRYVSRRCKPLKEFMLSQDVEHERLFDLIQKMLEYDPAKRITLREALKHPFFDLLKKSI
LRRK2 (G2019S), sequence (Q5S007 970-2527 G2019S limits assumed): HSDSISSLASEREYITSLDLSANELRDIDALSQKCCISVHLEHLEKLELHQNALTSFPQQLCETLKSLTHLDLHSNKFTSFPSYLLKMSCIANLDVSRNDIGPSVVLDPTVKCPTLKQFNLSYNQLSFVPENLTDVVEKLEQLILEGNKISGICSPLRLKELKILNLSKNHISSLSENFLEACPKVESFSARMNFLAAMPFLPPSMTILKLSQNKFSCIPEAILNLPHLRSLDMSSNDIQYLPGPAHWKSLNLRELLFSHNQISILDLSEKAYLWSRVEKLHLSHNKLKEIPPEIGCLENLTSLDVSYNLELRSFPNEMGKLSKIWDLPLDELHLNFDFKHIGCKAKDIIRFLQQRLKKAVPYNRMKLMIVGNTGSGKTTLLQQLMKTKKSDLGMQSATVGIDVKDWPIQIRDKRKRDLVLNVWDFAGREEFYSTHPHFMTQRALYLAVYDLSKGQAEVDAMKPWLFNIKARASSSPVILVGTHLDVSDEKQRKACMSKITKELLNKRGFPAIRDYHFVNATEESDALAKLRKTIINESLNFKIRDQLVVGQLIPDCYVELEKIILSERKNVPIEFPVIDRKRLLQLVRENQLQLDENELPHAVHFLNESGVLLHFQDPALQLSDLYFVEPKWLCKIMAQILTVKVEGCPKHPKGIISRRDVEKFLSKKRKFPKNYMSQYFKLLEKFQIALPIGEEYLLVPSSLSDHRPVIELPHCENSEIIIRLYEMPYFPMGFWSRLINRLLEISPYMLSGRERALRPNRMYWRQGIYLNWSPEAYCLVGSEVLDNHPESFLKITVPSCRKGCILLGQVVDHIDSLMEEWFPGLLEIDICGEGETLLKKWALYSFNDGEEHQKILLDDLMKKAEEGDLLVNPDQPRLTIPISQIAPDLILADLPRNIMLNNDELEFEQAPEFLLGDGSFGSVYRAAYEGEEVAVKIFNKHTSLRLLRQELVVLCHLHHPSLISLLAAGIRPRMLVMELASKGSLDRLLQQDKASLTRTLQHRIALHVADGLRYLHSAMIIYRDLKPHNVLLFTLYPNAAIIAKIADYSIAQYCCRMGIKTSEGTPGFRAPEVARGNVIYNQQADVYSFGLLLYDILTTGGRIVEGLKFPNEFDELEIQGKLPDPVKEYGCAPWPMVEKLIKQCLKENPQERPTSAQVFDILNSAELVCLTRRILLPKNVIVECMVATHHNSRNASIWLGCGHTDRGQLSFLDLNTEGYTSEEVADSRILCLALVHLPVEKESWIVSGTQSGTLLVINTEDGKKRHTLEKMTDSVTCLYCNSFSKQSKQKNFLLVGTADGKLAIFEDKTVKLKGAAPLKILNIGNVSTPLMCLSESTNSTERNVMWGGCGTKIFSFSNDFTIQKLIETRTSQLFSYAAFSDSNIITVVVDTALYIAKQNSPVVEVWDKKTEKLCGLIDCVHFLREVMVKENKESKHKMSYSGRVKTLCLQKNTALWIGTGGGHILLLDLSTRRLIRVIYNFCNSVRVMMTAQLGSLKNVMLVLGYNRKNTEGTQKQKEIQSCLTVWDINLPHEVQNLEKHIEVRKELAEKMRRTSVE

In general, IC50 refers to the concentration needed to halve the response being measured. In the case of `COc1cc(S(C)(=O)=O)ccc1Nc1cc(NC2CC2)c2cc[nH]c2n1` [Example 1, N^4-cyclopropyl-N^6-(2-methoxy-4-(methylsulfonyl)phenyl)-1H-pyrrolo[2,3-b]pyridine-4,6-diamine], the IC50 (against human GST-CLK1 (129-end); in test [1]; against LRRK2 (G2019S)) was 301 to 1000 nM in each case.
`CNc1cc(Nc2ccc(C(=O)N3CCOCC3)c3c2OCCO3)nc2[nH]ccc12` [Example 2, (8-((4-(Methylamino)-1H-pyrrolo[2,3-b]pyridine-6-yl)amino)-2,3-dihydrobenzo[b] [1,4]dioxin-5-yl)(morpholino) methanone]: the IC50 was 301 to 1000 nM against human GST-CLK1 (129-end), 301 to 1000 nM in test [1] and under 100 nM against LRRK2 (G2019S).
For the molecule `CCNc1cc(Nc2ccc(C(=O)N3CCOCC3)c3c2OCCO3)nc2[nH]ccc12` [Example 3, (8-((4-(ethylamino)-1H-pyrrolo[2,3-b]pyridin-6-yl)amino)-2,3-dihydrobenzo[b] [1,4]dioxin-5-yl)(morpholino) methanone 2,2,2-trifluoroacetate], the IC50 against human GST-CLK1 (129-end) lay within 301 to 1000 nM; in test [1], 301 to 1000 nM; against LRRK2 (G2019S) it was 101 to 300 nM.
As to `CCCNc1cc(Nc2ccc(C(=O)N3CCOCC3)c3c2OCCO3)nc2[nH]ccc12` [Example 4, morpholino(8-((4-(propylamino)-1H-pyrrolo[2,3-b]pyridin-6-yl)amino)-2,3-dihydrobenzo [b] [1,4]dioxin-5-yl)(morpholino) methanone 2,2,2-trifluoroacetate], the values for the IC50 (at human GST-CLK1 (129-end); in test [1]; against LRRK2 (G2019S)) were 301 to 1000 nM, 301 to 1000 nM and under 100 nM, respectively.
With `CC(C)Nc1cc(Nc2ccc(C(=O)N3CCOCC3)c3c2OCCO3)nc2[nH]ccc12` [Example 5, (8-((4-(isopropylamino)-1H-pyrrolo[2,3-b]pyridin-6-yl)amino)-2,3-dihydrobenzo[b] [1,4]dioxin-5-yl)(morpholino) methanone], the results for the IC50 (on human GST-CLK1 (129-end); in test [1]; against LRRK2 (G2019S)) were 301 to 1000 nM, 301 to 1000 nM and under 100 nM, respectively.
Consider `CC(C)CNc1cc(Nc2ccc(C(=O)N3CCOCC3)c3c2OCCO3)nc2[nH]ccc12` [Example 6, (8-((4-(isobutylamino)-1H-pyrrolo[2,3-b]pyridin-6-yl)amino)-2,3-dihydrobenzo [b] [1,4]dioxin-5-yl)(morpholino) methanone], for which the IC50 against human GST-CLK1 (129-end) is 301 to 1000 nM; in test [1], 301 to 1000 nM; against LRRK2 (G2019S), under 100 nM.
Take `O=C(c1ccc(Nc2cc(NC3CC3)c3cc[nH]c3n2)c2c1OCCO2)N1CCOCC1` [Example 7, (8-((4-(cyclopropylamino)-1H-pyrrolo[2,3-b]pyridin-6-yl)amino)-2,3-dihydrobenzo [b] [1,4]dioxin-5-yl)(morpholino) methanone]: the 50% inhibitory concentration (IC50) at human GST-CLK1 (129-end) was 301 to 1000 nM; in test [1], 301 to 1000 nM; on LRRK2 (G2019S), under 100 nM.
Regarding `O=C(c1ccc(Nc2cc(NC3CCCCC3)c3cc[nH]c3n2)c2c1OCCO2)N1CCOCC1` [Example 8, (8-((4-(cyclohexylamino)-1H-pyrrolo[2,3-b]pyridin-6-yl)amino)-2,3-dihydrobenzo[b] [1,4]dioxin-5-yl)(morpholino) methanone], the values for the IC50 (on human GST-CLK1 (129-end); in test [1]; against LRRK2 (G2019S)) were 301 to 1000 nM, 301 to 1000 nM and 101 to 300 nM, respectively.
As to `CS(=O)(=O)CCNc1cc(Nc2ccc(C(=O)N3CCOCC3)c3c2OCCO3)nc2[nH]ccc12` [Example 9, (8-((4-((2-(methylsulfonyl)ethyl)amino)-1H-pyrrolo[2,3-b]pyridin-6-yl)amino)-2,3-dihydrobenzo[b] [1,4]dioxin-5-yl)(morpholino) methanone], the IC50 at human GST-CLK1 (129-end) was 301 to 1000 nM; in test [1], 301 to 1000 nM; against LRRK2 (G2019S) it was under 100 nM.
`CCNc1cc(Nc2ccc(S(=O)(=O)N3CCOCC3)cc2OC)nc2[nH]ccc12` [Example 11, N^4-ethyl-N^6-(2-methoxy-4-(morpholinosulfonyl)phenyl)-1H-pyrrolo[2,3-b]pyridine-4,6-diamine 2,2,2-trifluoroacetate]: the IC50 fell in the range of 301 to 1000 nM against human GST-CLK1 (129-end), 301 to 1000 nM in test [1] and 101 to 300 nM at LRRK2 (G2019S).
In the case of `CCCNc1cc(Nc2ccc(S(=O)(=O)N3CCOCC3)cc2OC)nc2[nH]ccc12` [Example 12, N^6-(2-methoxy-4-(morpholinosulfonyl)phenyl)-N^4-propyl-1H-pyrrolo[2,3-b]pyridine-4,6-diamine 2,2,2-trifluoroacetate], the results for the IC50 (on human GST-CLK1 (129-end); in test [1]; against LRRK2 (G2019S)) were 301 to 1000 nM, 301 to 1000 nM and under 100 nM, respectively.
Turning to `COc1cc(S(=O)(=O)N2CCOCC2)ccc1Nc1cc(NC(C)C)c2cc[nH]c2n1` [Example 13, N^4-isopropyl-N^6-(2-methoxy-4-(morpholinosulfonyl)phenyl)-1H-pyrrolo[2,3-b]pyridine-4,6-diamine], the IC50 (on human GST-CLK1 (129-end); in test [1]; against LRRK2 (G2019S)) was 301 to 1000 nM each time.
For `COc1cc(S(=O)(=O)N2CCOCC2)ccc1Nc1cc(NCC(C)C)c2cc[nH]c2n1` [Example 14, N^4-isobutyl-N^6-(2-methoxy-4-(morpholinosulfonyl)phenyl)-1H-pyrrolo[2,3-b]pyridine-4,6-diamine], the IC50 (at human GST-CLK1 (129-end); in test [1]; on LRRK2 (G2019S)) was 301 to 1000 nM in each case.
As for `COc1cc(S(=O)(=O)N2CCOCC2)ccc1Nc1cc(NC2CC2)c2cc[nH]c2n1` [Example 15, N^4-cyclopropyl-N^6-(2-methoxy-4-(morpholinosulfonyl)phenyl)-1H-pyrrolo[2,3-b]pyridine-4,6-diamine], the IC50 was 301 to 1000 nM on human GST-CLK1 (129-end), 301 to 1000 nM in test [1] and under 100 nM on LRRK2 (G2019S).
In the case of `COc1cc(S(=O)(=O)N2CCOCC2)ccc1Nc1cc(NC2CCCCC2)c2cc[nH]c2n1` [Example 16, N^4-cyclohexyl-N^6-(2-methoxy-4-(morpholinosulfonyl)phenyl)-1H-pyrrolo[2,3-b]pyridine-4,6-diamine], the IC50 (at human GST-CLK1 (129-end); in test [1]; on LRRK2 (G2019S)) was 301 to 1000 nM in each case.
As for `COc1cc(S(=O)(=O)N2CCOCC2)ccc1Nc1cc(NCCS(C)(=O)=O)c2cc[nH]c2n1` [Example 17, N^6-(2-methoxy-4-(morpholinosulfonyl)phenyl)-N^4-(2-(methylsulfonyl)ethyl)-1H-pyrrolo[2,3-b]pyridine-4,6-diamine], the IC50 (on human GST-CLK1 (129-end); in test [1]; against LRRK2 (G2019S)) was 301 to 1000 nM throughout.
With `CNc1cc(Nc2ccc(S(=O)(=O)N3CCC(N4CCOCC4)CC3)cc2OC)nc2[nH]ccc12` [Example 18, N^6-(2-methoxy-4-((4-morpholinopiperidin-1-yl)sulfonyl)phenyl)-N^4-methyl-1H-pyrrolo[2,3-b]pyridine-4,6-diamine], the IC50 was 301 to 1000 nM against human GST-CLK1 (129-end), 301 to 1000 nM in test [1] and under 100 nM against LRRK2 (G2019S).
Take `CCNc1cc(Nc2ccc(S(=O)(=O)N3CCC(N4CCOCC4)CC3)cc2OC)nc2[nH]ccc12` [Example 19, N^4-ethyl-N^6-(2-methoxy-4-((4-morpholinopiperidin-1-yl)sulfonyl)phenyl)-1H-pyrrolo[2,3-b]pyridine-4,6-diamine]: the IC50 against human GST-CLK1 (129-end) was 301 to 1000 nM; in test [1], 301 to 1000 nM; against LRRK2 (G2019S), under 100 nM.

For the origin of these results see patent US12240844B2 (Voronoi, Inc., priority 2019, dated 2025).
